In ChEMBL document CHEMBL1201862, “PubChem BioAssay data set” (2004):
Calls of active or inactive are those of the source.

Experiments:
[1] = growth suppression of PTEN-null colon cells, dose response, cell-based, HCT116 PTEN knockout (AID 1047); format: functional;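 note: HCT116 colon tumor cells with PTEN knocked out; cells exposed to compound for 60 hours before readout; potency for loss of cell viability measured by luminescence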
[2] = growth suppression of beta-catenin-knockout colon cells, dose response, cell-based, HCT116, human colon tumor (AID 1045); format: functional;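 note: HCT116 colon tumor cells with beta catenin knocked out; cells exposed to compound for 60 hours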
Vero = assay: cells; format: functional; details: Chlorocebus sabaeus
[3] = biological target: T1, Ubiquitin-conjugating enzyme E2 N (Homo sapiens, UniProt P61088); format: functional;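 note: Dose-response confirmation in a TR-FRET assay detecting UBC13-driven polyubiquitin chain formation, inhibition measured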
T1 sequence (P61088 whole entry): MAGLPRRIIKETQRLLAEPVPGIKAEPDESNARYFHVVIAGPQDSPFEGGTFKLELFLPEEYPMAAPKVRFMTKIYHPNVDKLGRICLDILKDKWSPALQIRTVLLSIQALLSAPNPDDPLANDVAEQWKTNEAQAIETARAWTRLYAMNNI

[4] = biological target: T2, DNA repair protein RAD52 homolog (Homo sapiens, UniProt P43351); format: functional, biochemical
T2 sequence (P43351 whole entry): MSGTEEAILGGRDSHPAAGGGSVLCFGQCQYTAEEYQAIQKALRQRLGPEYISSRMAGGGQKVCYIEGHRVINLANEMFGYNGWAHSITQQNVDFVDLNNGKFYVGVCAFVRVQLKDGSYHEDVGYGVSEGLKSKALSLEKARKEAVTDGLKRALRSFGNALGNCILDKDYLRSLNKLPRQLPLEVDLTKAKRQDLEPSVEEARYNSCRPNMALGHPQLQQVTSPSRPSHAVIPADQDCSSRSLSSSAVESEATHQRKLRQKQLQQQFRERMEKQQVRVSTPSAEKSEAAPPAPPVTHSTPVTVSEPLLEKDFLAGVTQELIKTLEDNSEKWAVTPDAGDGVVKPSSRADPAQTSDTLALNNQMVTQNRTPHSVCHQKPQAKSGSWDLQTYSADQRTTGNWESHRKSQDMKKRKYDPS

[5] = microbe, parasite or virus in culture; format: functional; details: Mycobacterium tuberculosis
[6] = biological target: Eukaryotic translation initiation factor 4E (Mus musculus, UniProt P63073); assay: eIF4E–eIF4G protein interaction inhibitors, dose response, biochemical, TR-FRET (AID 855); format: functional;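 note: potency for disrupting eIF4E binding to eIF4GI seen as loss of FRET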
Sequence of Eukaryotic translation initiation factor 4E (P63073 whole entry): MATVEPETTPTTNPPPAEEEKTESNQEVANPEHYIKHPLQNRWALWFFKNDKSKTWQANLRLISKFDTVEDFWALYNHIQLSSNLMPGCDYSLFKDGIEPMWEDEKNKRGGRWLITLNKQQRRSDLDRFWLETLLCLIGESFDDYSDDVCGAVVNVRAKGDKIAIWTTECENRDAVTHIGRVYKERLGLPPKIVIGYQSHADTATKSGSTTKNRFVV

[7] = biological target: T3, Rac GTPase-activating protein 1 (Homo sapiens, UniProt Q9H0H5); assay: MgcRacGAP GTPase-activating activity inhibitors, confirmation, biochemical, ADP Hunter fluorescence, primary and confirmatory (AID 624330); format: functional
T3 sequence (Q9H0H5 whole entry): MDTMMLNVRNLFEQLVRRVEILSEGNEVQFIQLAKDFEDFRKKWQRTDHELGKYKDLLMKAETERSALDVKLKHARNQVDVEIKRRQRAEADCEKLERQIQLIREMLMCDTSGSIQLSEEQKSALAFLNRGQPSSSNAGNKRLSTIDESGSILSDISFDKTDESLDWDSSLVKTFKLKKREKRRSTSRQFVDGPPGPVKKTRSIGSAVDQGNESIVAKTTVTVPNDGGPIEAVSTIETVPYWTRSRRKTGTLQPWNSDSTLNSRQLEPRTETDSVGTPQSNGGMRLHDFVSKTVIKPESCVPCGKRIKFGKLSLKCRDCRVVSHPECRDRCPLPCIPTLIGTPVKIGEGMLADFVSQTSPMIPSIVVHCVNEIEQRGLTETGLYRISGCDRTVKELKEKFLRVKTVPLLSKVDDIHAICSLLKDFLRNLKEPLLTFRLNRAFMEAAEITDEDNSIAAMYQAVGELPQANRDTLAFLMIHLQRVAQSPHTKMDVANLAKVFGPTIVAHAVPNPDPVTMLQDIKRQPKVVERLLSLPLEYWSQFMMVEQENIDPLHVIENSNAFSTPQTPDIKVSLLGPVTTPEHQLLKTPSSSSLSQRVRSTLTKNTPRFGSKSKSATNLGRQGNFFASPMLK

[8] = inhibitors of firefly luciferase expression or activity, dose response, H4 neuroglioma cells, luminescence (AID 1990); format: functional, cell-based
[9] = system: Streptococcus sp. 'group A'; assay: growth inhibition of control SK(-) GAS strain, dose response, counter-screen for streptokinase expression inhibitor project, luminescence, kanamycin, BacTiterGlo, confirmation (AID 1900); format: functional, organism-based
[10] = Luminescence Cell-Based Dose Response HTS to Identify Inhibitors of 5'UTR Stem-Loop Driven Prion Protein mRNA Translation in H4 Neuroglioblastoma Cells. [Related pubchem assays: 1827 (Project Summary), 1813 (Primary HTS)]; format: functional
[11] = inhibitors of SNCA 5'UTR-driven reporter translation, confirmation, H4 neuroglioma cells, luminescence (AID 1988); format: functional, cell-based
Streptokinase A = biological target: T4, Streptokinase A (Streptococcus pyogenes serotype M1, UniProt P10520); assay: S. pyogenes streptokinase expression inhibitors, potency, dose response, plasminogen activation absorbance, OD405 (AID 1914); format: functional, Streptococcus pyogenes M1 GAS;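 note: secreted streptokinase activity via plasminogen activation per viability signal from cell pellet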
T4 sequence (P10520 whole entry): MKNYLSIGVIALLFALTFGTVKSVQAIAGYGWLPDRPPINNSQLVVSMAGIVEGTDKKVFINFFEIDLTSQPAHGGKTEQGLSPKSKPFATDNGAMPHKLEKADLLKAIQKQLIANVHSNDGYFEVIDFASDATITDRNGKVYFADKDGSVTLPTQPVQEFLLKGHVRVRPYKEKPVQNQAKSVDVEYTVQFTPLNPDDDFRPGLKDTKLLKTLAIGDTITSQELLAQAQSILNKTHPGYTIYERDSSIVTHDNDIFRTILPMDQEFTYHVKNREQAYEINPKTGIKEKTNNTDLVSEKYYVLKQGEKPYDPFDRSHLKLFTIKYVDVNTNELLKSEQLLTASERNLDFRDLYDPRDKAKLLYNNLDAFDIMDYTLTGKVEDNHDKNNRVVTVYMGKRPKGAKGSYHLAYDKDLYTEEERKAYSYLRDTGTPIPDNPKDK

Streptococcus = assay: Group A Streptococcus viability loss, dose response, counter-screen for streptokinase expression inhibitor project, luminescence, BacTiterGlo (AID 1915); format: functional, organism-based;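 note: potency for reduction of bacterial viability or growth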
Cytochrome P450 2D6 = Cytochrome P450 2D6 (Homo sapiens, UniProt P10635);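 note: CYP2D6 member of a cytochrome P450 panel assay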
Sequence of Cytochrome P450 2D6 (P10635 whole entry): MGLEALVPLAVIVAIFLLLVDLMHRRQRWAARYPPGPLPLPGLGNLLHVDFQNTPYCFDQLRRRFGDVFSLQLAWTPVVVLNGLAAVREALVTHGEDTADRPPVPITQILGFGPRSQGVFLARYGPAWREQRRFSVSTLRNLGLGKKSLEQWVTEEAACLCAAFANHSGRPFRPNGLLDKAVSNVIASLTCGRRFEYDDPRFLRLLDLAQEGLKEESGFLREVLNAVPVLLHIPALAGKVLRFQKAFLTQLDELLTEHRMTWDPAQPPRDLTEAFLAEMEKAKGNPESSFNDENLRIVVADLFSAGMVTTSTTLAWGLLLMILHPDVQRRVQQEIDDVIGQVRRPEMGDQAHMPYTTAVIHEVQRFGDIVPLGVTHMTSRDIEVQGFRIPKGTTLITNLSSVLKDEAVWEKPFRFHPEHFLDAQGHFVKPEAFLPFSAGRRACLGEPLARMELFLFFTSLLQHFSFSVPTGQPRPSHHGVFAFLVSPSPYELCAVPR

Cytochrome P450 3A4 = Cytochrome P450 3A4 (Homo sapiens, UniProt P08684); details: Potency;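 note: confirmatory qHTS run detecting inhibitors and substrates of CYP3A4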
Sequence of Cytochrome P450 3A4 (P08684 whole entry): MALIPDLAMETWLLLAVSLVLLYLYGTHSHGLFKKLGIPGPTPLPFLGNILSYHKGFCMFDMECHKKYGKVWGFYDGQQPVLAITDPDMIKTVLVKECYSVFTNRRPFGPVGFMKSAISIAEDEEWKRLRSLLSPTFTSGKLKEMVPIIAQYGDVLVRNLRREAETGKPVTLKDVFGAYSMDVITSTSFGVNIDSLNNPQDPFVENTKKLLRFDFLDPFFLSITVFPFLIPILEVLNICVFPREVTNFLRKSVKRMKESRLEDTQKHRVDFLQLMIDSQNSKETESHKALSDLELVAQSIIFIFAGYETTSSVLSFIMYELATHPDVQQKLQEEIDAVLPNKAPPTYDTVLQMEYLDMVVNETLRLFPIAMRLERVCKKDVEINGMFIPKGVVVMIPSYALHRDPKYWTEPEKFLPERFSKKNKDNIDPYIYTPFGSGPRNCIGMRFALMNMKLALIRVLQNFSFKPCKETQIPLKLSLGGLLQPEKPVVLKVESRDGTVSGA

cells = format: functional
[12] = biological target: T5, Heat shock factor protein 1 (Mus musculus, UniProt P38532); assay: HSF1 potentiators in luciferase reporter cells, confirmation, cell-based, NIH3T3, luminescence, dose retest (AID 435004); format: functional;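 note: stress induced by proteasome inhibitor MG132 added 30 min after compound; luciferase reporter driven by HSF1 response element in NIH3T3 cells; actives raise luminescence as potentiators of the MG132 stress response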
T5 sequence (P38532 whole entry): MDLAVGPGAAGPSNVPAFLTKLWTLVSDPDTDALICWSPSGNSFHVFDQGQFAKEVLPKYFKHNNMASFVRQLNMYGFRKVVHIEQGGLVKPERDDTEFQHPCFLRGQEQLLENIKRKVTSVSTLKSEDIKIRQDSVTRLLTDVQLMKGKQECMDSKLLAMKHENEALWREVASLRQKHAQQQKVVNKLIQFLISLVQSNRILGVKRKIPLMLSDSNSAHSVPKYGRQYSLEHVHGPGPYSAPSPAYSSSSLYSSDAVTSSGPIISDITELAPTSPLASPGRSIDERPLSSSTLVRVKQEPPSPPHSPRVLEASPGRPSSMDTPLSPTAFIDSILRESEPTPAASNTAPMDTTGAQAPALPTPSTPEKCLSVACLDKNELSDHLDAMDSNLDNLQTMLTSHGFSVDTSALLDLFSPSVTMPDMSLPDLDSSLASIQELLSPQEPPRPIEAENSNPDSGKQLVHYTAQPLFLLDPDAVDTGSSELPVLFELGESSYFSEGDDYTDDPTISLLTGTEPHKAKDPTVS

[13] = HEp-2 cell cytotoxicity, dose response, cytotoxicity control for RSV inhibitor project, HTS (AID 2410); format: functional; details: human respiratory syncytial virus

For `C=CCn1c(SCC(=O)c2[nH]c(C)c(C(=O)OCC)c2C)nc2scc(-c3ccc(OC)cc3)c2c1=O`, the EC50 [1] was 1.49 µM (active), the EC50 [2] was 1.41 µM (active) and the CC50 (Vero) was 6.78 µM (active).
With `COc1ccc2[nH]c(SCc3nc(N)nc(Nc4ccccc4)n3)nc2c1` the IC50 [3] was > 20 µM (inactive).
With `CCN(CC)CCN(C(=O)c1ccc(C(=O)c2ccccc2)cc1)c1nc2c(OC)cccc2s1` the AC50 [4] was 17.2 µM (active).
For `COc1cccc(-c2cnc(NCc3cc(Cl)ccc3O)n2C)c1`, the CC50 [5] was > 40 µM (active).
With `CC1=CC(=O)NP(=O)(Oc2ccc3ccccc3c2)N1` (stereo not given) the IC50 [6] was 31.2 µM (active) and the IC50 [7] was 80.7 µM (active).
With `CCCCC1CCC(c2nc(-c3ccccn3)no2)CC1` (stereo not given) the EC50 [8] was 9.12 µM (inconclusive), the EC50 [9] was 16.1 µM (active) and the EC50 [10] was > 60 µM (not active). The EC50 [11] was 2.95 µM (active), the EC50 (Streptokinase A) was > 150 µM (not active) and the EC50 (Streptococcus) was 21 µM (active). For the same compound, the AC50 (Cytochrome P450 2D6) was 25.1 µM (inconclusive).
With `CCN(CC)c1cccc(O)c1` the AC50 (Cytochrome P450 3A4) was 31.6 µM (inconclusive).
In the case of `COc1ccccc1/C=C/C(=O)c1cccs1`, the AC50 (Cytochrome P450 3A4) is reported as 25.1 µM (inconclusive).
With `CCOc1ccc(OC(=O)c2ccc3c(=O)n4c(nc3c2)CCC4)cc1` the IC50 (cells) was 0.12 µM (active).
For `COc1cc(/C=C2\N=C(c3ccccc3)NNC2=O)cc(OC)c1OC`, the EC50 [8] was > 120 µM (not active), the EC50 [10] was 9.91 µM (active) and the EC50 [11] was 8.22 µM (active).
In the case of `Cc1ccc(N(Cc2ccc(C(=O)Nc3ccccc3C(=O)NCc3ccco3)cc2)S(C)(=O)=O)cc1C`, the EC50 [8] is reported as 17.5 µM (active), the EC50 [10] is reported as > 120 µM (not active) and the EC50 [11] is reported as 22.9 µM (active). For the same compound, the EC50 [12] was > 260 µM (inactive).
For `CCCCCCc1ccc(N2C[C@H](C)[C@@H](CC(=O)NCc3ccccc3)C2=O)cc1`, the CC50 [5] was > 40 µM (active).
With `O=C(CN1C(=O)c2ccccc2S1(=O)=O)N1CCc2ccccc2C1` the EC50 [8] was 25.5 µM (active), the EC50 [10] was 21.4 µM (active) and the EC50 [11] was 12.6 µM (active).
For `COc1ccc(OC)c(Nc2nc(-c3sc(C)nc3C)cs2)c1`, the CC50 [13] was 20.4 µM (active) and the CC50 [5] was > 40 µM (active).
With `O=C(Cc1ccc(N2CCNC2=O)cc1)N1CCCC(Nc2cccc(F)c2)C1` (stereo not given) the EC50 [8] was 9.37 µM (inconclusive), the EC50 [10] was 2.72 µM (active) and the EC50 [11] was 5.11 µM (active).
In the case of `COC(=O)CNC(=O)C1(CC(C)C)C=CCN1C(C)=O` (stereo not given), the AC50 (Cytochrome P450 3A4) is reported as 25.1 µM (inconclusive).
